Kp, Kp uu and AUC(0-t) data for 1 compound are collected here from patent publication US10759796B2, “CXCR4 inhibitors and uses thereof” (X4 Pharmaceuticals, Inc., priority 2016, dated 2020).

A short description of the data set: MTD and pharmacokinetics and brain penetration after PO administration. Particulars: male; for Kp / Kp uu: Mouse; for AUC(0-t): C57BL/6. Format: in vivo, Male C57BL/6 Mice. The protocol: Example 30: MTD and Pharmacokinetics and Brain Penetration Experiment to Determine Brain and Plasma Concentration of Compounds after PO Administration to Male C57BL/6 Mice
The study was designed with 2 groups (18 animals and 24 animals) consists of administrating the drug [PO-50, 100, 150, 225, 300 mg/kg via oral gavage] and collecting samples at terminal bleeding for plasma, brain and CSF at 0.25, 0.5, 1, 4, 8, and 24 hr. All PO dosing solutions were prepared in 50 mM citrate buffer (pH 4.0).
The blood collection was performed as follows: the animal was restrained manually at the designated time points, approximately 500 μL of blood sample was collected via cardiac puncture vein into EDTA-2K tubes. The whole blood needed to be divided into two parts; one part was placed in the tube containing EDTA-2K for plasma generation and the other was used for the hematology assay, respectively. The blood samples for plasma generation were maintained in wet ice first and centrifuged to obtain plasma (2000 g, 4° C., 5 min) within 15 minutes post sampling. The brain collection was performed as follows: a mid-line incision was made in the animal's scalp and the skin was retracted. Using small bone cutters and rongeurs, the skull overlying the brain was removed. The brain was removed using a spatula and rinsed with cold saline. The brain was placed in screw-top tubes, and then stored at −70° C. until analysis. The CSF collection was performed as follows: a mid line incision was made on the neck. The muscle under the skin was cut to expose the cisterna magna. The cisterna magna was penetrated with the sharp end of one capillary (Burn one end of capillary to make it sharp). The CSF was sucked spontaneously into the capillary.
Plasma Sample Preparation:
An aliquot of 30 μL sample was added with 100 μL MeCN containing 100 ng/mL IS (Dexamethasone). The mixture was vortexed for 10 min and centrifuged at 5800 rpm for 10 min. An aliquot of 40 μL supernatant was added to 40 μL H2O and the mixture was vortexed for 5 min. An aliquot of 2 μL supernatant was injected for LC-MS/MS analysis.
Brain Sample Preparation:
An aliquot of 30 μL brain homogenate (brain:PBS=1:3, w/v) sample was added to 100 μL MeCN containing 100 ng/mL IS (Dexamethasone). The mixture was vortexed for 10 min and centrifuged at 5800 rpm for 10 min. An aliquot of 40 μL supernatant was added to 40 μL H2O and the mixture was vortexed for 5 min. An aliquot of 2 μL supernatant was injected for LC-MS/MS analysis.
An aliquot of 3 μL sample was added to a mixture of 6 CSF, 9 μL MeOH/H2O (1/1), 40 μL MeCN containing 200 ng/mL IS (Dexamethasone), and 116 μL H2O. The mixture was vortexed for 5 min. An aliquot of 4 μL was injected for LC-MS/MS analysis.
The sample analysis was performed on UPLC-MS/MS-02 (Triple Quad 4000) under the following conditions: positive ion, ESI, MRM detection using dexamethasone as internal standard. HPLC conditions: mobile phase A: H2O-0.1% formic acid, mobile phase B: MeCN-0.1% formic acid on: ACQUITY UPLC HSS T3 (2.1×50 mm, 1.8 μm) at 60° C.

[1] abbreviates: C57BL/6, brain and plasma, single administration, D1-50 mg/kg PO.
Setting [2] is: C57BL/6, brain, multiple administration, D5-300 mg/kg PO.

Each structure is given as a SMILES string. Like-named read-outs stand apart in the source and are kept apart here.

`CN1CCN(c2cccc3nc([C@H]4CCC[C@@H](c5ncccc5Cl)N4)cn23)CC1` (single isomer, unassigned) [Compound I-188]: the Kp turned out to be 2.49 under setting [1] and 5.61 under setting [2]. Moreover, the Kp uu under setting [1] was found to be 0.94 and the Kp uu under setting [2] was 2.12. In addition, the AUC(0-t) (Mouse brain, multiple administration, D5-300 mg/kg PO, read-out: AUClast (b)) stood at 430000 ng·h/mL; the AUC(0-t) (Mouse brain, single administration, D1-50 mg/kg PO, read-out: AUClast (b)) worked out at 58600 ng·h/mL; the AUC(0-t) (Mouse plasma, multiple administration, D5-300 mg/kg PO, read-out: AUClast (p)) was 76600 ng·h/mL; the AUC(0-t) (Mouse plasma, single administration, D1-50 mg/kg PO, read-out: AUClast (p)) is 23500 ng·h/mL.
